Drawing on PubChem BioAssay (NCI), this text covers TGI and GI50 for 14 compounds.

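A five-concentration, 48-hour dose response in 96-well plates underlies each endpoint, interpolated linearly between surrounding concentrations. GI50 is the concentration that inhibits growth by half. At the TGI there is no net growth.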 Where only a bound is given, the exact number is not on record here.

Some test systems named below: A498 renal; LOX IMVI melanoma; NCI-H226 lung; SW-620 colon; MOLT-4 leukemia; UACC-257 melanoma; SNB-75 CNS; KM12 colon; SK-MEL-28 melanoma.
What all share (experiment): inhibition of tumour cell growth, NCI panel, 48 h

Regarding `COc1ccc(Nc2nc3ccc(C(F)(F)F)cc3nc2-c2ccccc2)cc1OC`, the TGI in the assay with A498 renal is > 100 µM; in the assay with LOX IMVI melanoma, 31.6 µM; in the assay with NCI-H226 lung, > 100 µM; in the assay on SW-620 colon, > 100 µM; in the assay on MOLT-4 leukemia, > 100 µM; with UACC-257 melanoma, > 100 µM. Besides, the TGI in the assay with SNB-75 CNS, in the assay with KM12 colon and in the assay on SK-MEL-28 melanoma was > 100 µM in each case.

On to `COc1ccc(OC)c(/C(C)=N/NC(N)=S)c1`, for which the TGI in the assay with A498 renal, with LOX IMVI melanoma, in the assay on NCI-H226 lung, with SW-620 colon, with MOLT-4 leukemia and in the assay with UACC-257 melanoma was > 100 µM throughout. Also, the TGI with SNB-75 CNS, in the assay on KM12 colon and with SK-MEL-28 melanoma was > 100 µM each time.

Regarding `COc1ccc2c(c1)N1CCc3cc(OC)c(OC)cc3C1C2` (stereo not drawn), the TGI is > 100 µM in the assay with A498 renal; > 100 µM in the assay with LOX IMVI melanoma; 98.7 µM in the assay with NCI-H226 lung; > 100 µM with SW-620 colon; > 100 µM in the assay on MOLT-4 leukemia; > 100 µM in the assay with UACC-257 melanoma. Moreover, the TGI in the assay with KM12 colon and in the assay with SK-MEL-28 melanoma was > 100 µM in each case.

Take `Cc1cc2c(ccc3c(C)cc(=O)oc32)o1`: the TGI in the assay with LOX IMVI melanoma, in the assay with NCI-H226 lung, with SW-620 colon, in the assay on MOLT-4 leukemia, with UACC-257 melanoma and in the assay on SNB-75 CNS was > 100 µM each time. Also, the TGI in the assay with KM12 colon and with SK-MEL-28 melanoma was > 100 µM throughout.

For the compound `CN(C)CC(C)(C)C(=O)/C=C/c1ccc(/C=C/C(=O)C(C)(C)CN(C)C)cc1`, the TGI turned out to be 3.46 µM with A498 renal; 1.69 µM with LOX IMVI melanoma; 4.93 µM in the assay with NCI-H226 lung; 2.17 µM in the assay on SW-620 colon; 3.83 µM in the assay with UACC-257 melanoma; 3.05 µM in the assay with SNB-75 CNS. Further, the TGI in the assay on KM12 colon was 3.25 µM; in the assay on SK-MEL-28 melanoma it was 3.5 µM.

Consider `COCCCNC(=O)C1C(=O)N(CCCOC)C(=O)/C1=N\N` (stereo not drawn), for which the TGI with A498 renal, with SW-620 colon, with MOLT-4 leukemia, in the assay on UACC-257 melanoma, in the assay on SNB-75 CNS and in the assay on KM12 colon was > 100 µM each time. The TGI in the assay on SK-MEL-28 melanoma was > 100 µM.

Regarding `C[N-]c1nnnn1C.[Au+].c1ccc([PH+](c2ccccc2)c2ccccc2)cc1`, the GI50 in the assay on LOX IMVI melanoma is 2.12 µM; in the assay on NCI-H226 lung, 4.98 µM; in the assay with MOLT-4 leukemia, 1.62 µM; in the assay with UACC-257 melanoma, 2.03 µM; in the assay with SNB-75 CNS, 4.75 µM; in the assay with KM12 colon, 7.09 µM. Besides, the GI50 in the assay on SK-MEL-28 melanoma is 1.39 µM. Moreover, the TGI with LOX IMVI melanoma was 5.77 µM; in the assay on NCI-H226 lung, 14 µM; in the assay with MOLT-4 leukemia, 4.22 µM; with UACC-257 melanoma, 6.51 µM; in the assay on SNB-75 CNS, 11 µM; with KM12 colon it was 28.6 µM. Besides, the TGI in the assay with SK-MEL-28 melanoma stood at 3.13 µM.

Regarding `[Cl-].[O-]/N=C(\c1ccccc1)c1ccccn1.[O-]/N=C(\c1ccccc1)c1ccccn1.[O-]/N=C(\c1ccccc1)c1ccccn1.[Sm+3]`, the GI50 is 58.3 µM in the assay with A498 renal; 22.4 µM in the assay with LOX IMVI melanoma; 24.1 µM with NCI-H226 lung; 34.5 µM with SW-620 colon; 29.1 µM with MOLT-4 leukemia; 23.8 µM in the assay with UACC-257 melanoma. In addition, the GI50 in the assay on SNB-75 CNS was 4.49 µM; in the assay with KM12 colon, 17.6 µM; in the assay with SK-MEL-28 melanoma, 30.5 µM. Further, the TGI is > 100 µM with A498 renal; 53.3 µM with LOX IMVI melanoma; 62.5 µM in the assay with NCI-H226 lung; > 100 µM in the assay with SW-620 colon; > 100 µM with MOLT-4 leukemia; 73.6 µM in the assay on UACC-257 melanoma. The TGI in the assay on SNB-75 CNS is 31.3 µM; with KM12 colon, > 100 µM; in the assay with SK-MEL-28 melanoma, 94.8 µM.

`Cc1[nH]c2ccccc2c1C(=O)CC1(O)C(=O)Nc2ccccc21` (stereo not drawn): the TGI with A498 renal, with LOX IMVI melanoma, in the assay on NCI-H226 lung, in the assay with SW-620 colon, in the assay on MOLT-4 leukemia and with UACC-257 melanoma was > 100 µM in each case. Further, the TGI with SNB-75 CNS, with KM12 colon and in the assay with SK-MEL-28 melanoma was > 100 µM each time.

As for `C=C(c1ccc2nc(NC(=O)OC)[nH]c2c1)c1cccs1`, the TGI was 2.71 µM in the assay with A498 renal; > 52.6 µM with LOX IMVI melanoma; > 94.5 µM in the assay on NCI-H226 lung; > 100 µM with SW-620 colon; > 100 µM in the assay with UACC-257 melanoma; > 100 µM in the assay with KM12 colon. The TGI in the assay on SK-MEL-28 melanoma was > 100 µM.

Turning to `C=C1C(O)C2C(=C(CCc3ccccc3)C13CC3)C(=O)C(C)(CO)C2O` (stereo not drawn), the GI50 in the assay with LOX IMVI melanoma is > 100 µM; in the assay on NCI-H226 lung, > 100 µM; in the assay with SW-620 colon, > 100 µM; in the assay on MOLT-4 leukemia, 64.1 µM; in the assay on UACC-257 melanoma, > 100 µM; with SNB-75 CNS, > 100 µM. In addition, the GI50 in the assay on KM12 colon and with SK-MEL-28 melanoma was > 100 µM each time. Moreover, the TGI with LOX IMVI melanoma, in the assay on NCI-H226 lung, in the assay on SW-620 colon, with MOLT-4 leukemia, with UACC-257 melanoma and in the assay with SNB-75 CNS was > 100 µM in each case. Moreover, the TGI in the assay on KM12 colon and with SK-MEL-28 melanoma was > 100 µM each time.

Turning to `Cc1ccc(SC(CCC(Sc2ccc(C)cc2)Sc2ccc(C)cc2)Sc2ccc(C)cc2)cc1`, the TGI with A498 renal, in the assay with LOX IMVI melanoma, in the assay on SW-620 colon, in the assay on MOLT-4 leukemia, in the assay with UACC-257 melanoma and in the assay with SNB-75 CNS was > 100 µM each time. Further, the TGI with KM12 colon and with SK-MEL-28 melanoma was > 100 µM throughout.

Take `C=C(COC(C)=O)CC(OC(C)=O)c1ccccc1` (stereo not drawn): the TGI in the assay with A498 renal, in the assay with LOX IMVI melanoma, with NCI-H226 lung, in the assay on SW-620 colon, in the assay on MOLT-4 leukemia and with SNB-75 CNS was > 100 µM each time. Moreover, the TGI in the assay with KM12 colon and in the assay with SK-MEL-28 melanoma was > 100 µM each time.

With `CC(C)CC(NC(=O)c1cccc(O)c1O)C(=O)NCc1cc(CNC(=O)C(CC(C)C)NC(=O)c2cccc(O)c2O)cc(CNC(=O)C(CC(C)C)NC(=O)c2cccc(O)c2O)c1` (stereo not drawn), the TGI in the assay on A498 renal is > 100 µM; with LOX IMVI melanoma, 25.6 µM; in the assay with NCI-H226 lung, 60.2 µM; with SW-620 colon, 61.8 µM; in the assay with MOLT-4 leukemia, 37.9 µM; in the assay with UACC-257 melanoma, 58.9 µM. Also, the TGI with SNB-75 CNS stood at 45.9 µM; with KM12 colon, 41.9 µM; in the assay with SK-MEL-28 melanoma it was 68.5 µM.
